Activity calls are given as the source filed them. The calls are words filed in the database; no cut-off is given here.

Series [1] deals with HUVEC. Kind of series: Antiproliferative activity against activated HUVECs after 48 hrs by CCK-8 assay. Format: functional, cell-based. To be noted: Homo sapiens.
The test system of series [2] is HUVEC. Kind of series: Selectivity ratio of IC50 for quesicent HUVECs to IC50 for activated HUVECs. It is filed as functional, Homo sapiens.
Series [3] relates to HUVEC. Kind of series: Antiproliferative activity against quesicent HUVECs after 48 hrs by CCK-8 assay. It is filed as cell-based. To be noted: Homo sapiens.
The subject of series [4] is A549. Kind of series: Cytotoxicity against human A549 cells after 72 hrs by CCK-8 assay. It is filed as functional, cell-based. Particulars: A549, 72 h.
The test system of another series is HeLa. Kind of series: Cytotoxicity against human HeLa cells after 72 hrs by CCK-8 assay. It is filed as functional, cell-based.
A further series concerns HepG2. Kind of series: Cytotoxicity against human HepG2 cells after 72 hrs by CCK-8 assay. It is filed as functional, cell-based. To be noted: HepG2, 72 h.
In another series the test system is HT-1080. Kind of series: Cytotoxicity against human HT1080 cells after 72 hrs by CCK-8 assay. It is filed as functional, cell-based. Particulars: HT-1080, 72 h.
In another series the target is Tubulin (Homo sapiens) (UniProt P68371+Q9H4B7+P0DPH7+P68366+Q13509+Q71U36+P04350+Q3ZCM7+P07437+P68363+Q9BQE3+Q6PEY2+Q13885+Q9BVA1+Q9BUF5). Kind of series: Inhibition of tubulin polymerization in human A549 cells at 0.1 uM after 6 hrs by Western blotting analysis. It is filed as cell-based.
Series [5] relates to HUVEC. Kind of series: Antiangiogenic activity in quesicent HUVECs assessed as disruption of preformed capillaries at 1 uM after 4 hrs by light microscopic analysis relative to control. Format: cell-based. To be noted: human.
Series [6] relates to A549. Kind of series: Antimitotic activity in human A549 cells assessed as disruption of microtubule organization at 0.1 uM after 16 hrs by DAPI staining-based Zeiss microscopic analysis relative to control. Format: functional, cell-based.
Series [7] concerns A549. Kind of series: Cell cycle arrest in human A549 cells assessed as accumulation at G1 phase at 0.1 uM after 24 hrs by propidium iodide staining-based FACS flow cytometric analysis (reference value: 53.57%). Format: functional.
Series [8] has as its system HUVEC. Kind of series: Antiangiogenic activity in quesicent HUVECs assessed as disruption of preformed capillaries at 0.1 uM after 4 hrs by light microscopic analysis (reference value: 11%). Format: cell-based. Particulars: human.
In series [9] the test system is A549. Kind of series: Cell cycle arrest in human A549 cells assessed as accumulation at G2/M phase at 0.1 uM after 24 hrs by propidium iodide staining-based FACS flow cytometric analysis (reference value: 8.52%). Format: functional.
In series [10] the test system is A549. Kind of series: Cell cycle arrest in human A549 cells assessed as accumulation at S phase at 0.1 uM after 24 hrs by propidium iodide staining-based FACS flow cytometric analysis (reference value: 32.56%). It is filed as functional.
The subject of series [11] is HUVEC. Kind of series: Antiangiogenic activity in activated HUVECs assessed as inhibition of capillary tube formation at 0.1 uM after 22 hrs by light microscopic analysis. Format: functional, cell-based. To be noted: Homo sapiens.
The test system of series [12] is A549. Kind of series: Antimitotic activity in human A549 cells assessed as disruption of microtubule organization at 0.01 uM after 16 hrs by DAPI staining-based Zeiss microscopic analysis relative to control. Format: functional, cell-based.
The test system of series [13] is A549. Kind of series: Antiangiogenic activity in human A549 cells xenografted in BALB/c nu/nu mouse assessed as disruption of tumor vasculature at 100 mg/kg, ip after 16 hrs by Hoechst 33342 staining-based Zeiss microscopic analysis relative to control. Format: functional. To be noted: route intraperitoneal.
Series [14] deals with A549. Kind of series: Antimitotic activity in human A549 cells assessed as disruption of microtubule organization at 0.05 uM after 16 hrs by DAPI staining-based Zeiss microscopic analysis relative to control. Format: functional, cell-based.

Regarding `COc1ccc(C(=O)c2c[nH]c3c(OC)c(OC)c(OC)cc23)cc1O`, the IC50 was found to be 327 nM in the series with HUVEC [1], 2980 nM in the series with HUVEC [3] (read-out: IC50) and 166 nM in the series on A549 [4]. Moreover, the “Ratio IC50” value in the series with HUVEC [2] was 9.1.

Take `COc1ccc(Cc2c[nH]c3c(OC)c(OC)c(OC)cc23)cc1O`: the IC50 is 228 nM with HUVEC [1]; 149 nM in the series with HeLa; 72.2 nM with HepG2; 2450 nM with HUVEC [3] (read-out: IC50); 118 nM in the series with HT-1080; 118 nM in the series with A549 [4]. In addition, in the series with HUVEC [2], the “Ratio IC50” value turned out to be 10.8.

Turning to `COc1ccc(C(=O)c2c(C)n(C)c3c(OC)c(OC)c(OC)cc23)cc1O`, the IC50 was 43.7 nM in the series on HUVEC [1]; 632 nM in the series on HeLa; 91.6 nM in the series on HepG2; 161 nM in the series with HUVEC [3] (read-out: IC50); 574 nM in the series with HT-1080; 108 nM with A549 [4]. Further, the “Ratio IC50” value with HUVEC [2] turned out to be 3.68.

The compound `COc1ccc(Cn2ccc3cc(OC)c(OC)c(OC)c32)cc1` returned a half-inhibitory concentration (IC50) with A549 [4] of 3090 nM.

In the series on A549 [4], `COc1ccc(C(=O)c2c[nH]c3c(OC)c(OC)c(OC)cc23)cc1Cl` had an IC50 of over 10000 nM.

Regarding `COc1ccccc1C(=O)c1c[nH]c2c(OC)c(OC)c(OC)cc12`, the half-maximal inhibitory concentration (IC50) with A549 [4] was over 10000 nM.

As to `COc1ccc(Cc2cn(C)c3c(OC)c(OC)c(OC)cc23)cc1O`, the inhibition against Tubulin (Homo sapiens) amounted to 31%. Besides, the IC50 in the series with HUVEC [1] came out at 8.9 nM; with HeLa, 40.7 nM; with HepG2 it was 45.5 nM; in the series with HUVEC [3] (read-out: IC50) it was 6300 nM; with HT-1080, 42.2 nM; with A549 [4], 71.7 nM. Moreover, the Activity is listed as 51% in the series on HUVEC [5]; 3.9% with A549 [7]; 10% with HUVEC [8]; 80.48% in the series on A549 [9]; 14.7% in the series with A549 [10]. Besides, the result in the series with A549 [6] was Active. Also, the inhibition entry in the series on HUVEC [11] is “Active”.

Take `COc1ccc(/C=C\c2cc(OC)c(OC)c(OC)c2)cc1O` [COMBRETASTATIN A4]: the IC50 stood at 3.34 nM in the series with HUVEC [1], 8.9 nM in the series on HUVEC [3] (read-out: IC50) and 3.64 nM in the series on A549 [4]. In the series with A549 [12], the result was Active. In addition, the Activity in the series with A549 [13] was 72%. Moreover, the “Ratio IC50” value in the series on HUVEC [2] turned out to be 2.66.

As to `COc1cccc(C(=O)c2c[nH]c3c(OC)c(OC)c(OC)cc23)c1`, the IC50 in the series with A549 [4] was over 10000 nM.

`COc1ccc(Cn2ccc3cc(OC)c(OC)c(OC)c32)cc1O` had a 50% inhibitory concentration (IC50) with A549 [4] of 3190 nM.

For `COc1ccc(Cc2c[nH]c3c(OC)c(OC)c(OC)cc23)cc1`, in the series with A549 [4], the IC50 came to 2990 nM.

In the case of `COc1cc2c(C(=O)c3ccc(C)cc3)c[nH]c2c(OC)c1OC`, the IC50 in the series with A549 [4] is over 10000 nM.

In the series on A549 [4], `COc1ccc(C(=O)c2c(C)[nH]c3c(OC)c(OC)c(OC)cc23)cc1O` showed an IC50 of 2620 nM.

Consider `COc1ccc(C(=O)c2cn(S(=O)(=O)c3ccccc3)c3c(OC)c(OC)c(OC)cc23)cc1`, for which the concentration for half-maximal inhibition (IC50) in the series on A549 [4] was over 10000 nM.

The compound `COc1cc(Cc2c[nH]c3c(OC)c(OC)c(OC)cc23)cc(OC)c1OC` gave an IC50 in the series with A549 [4] of over 10000 nM.

In the series on A549 [4], `COc1ccc(C(=O)n2ccc3cc(OC)c(OC)c(OC)c32)cc1O` registered an IC50 of over 10000 nM.

On to `COc1ccc(C(=O)c2cn(C(C)=O)c3c(OC)c(OC)c(OC)cc23)cc1`, for which, in the series on A549 [4], the IC50 was determined as 5270 nM.

In turn, `COc1ccc(C(=O)c2cn(C)c3c(OC)c(OC)c(OC)cc23)cc1` yielded an IC50 with A549 [4] of 482 nM.

As to `COc1cc2c(c(OC)c1OC)-c1ccc(OC)c(=O)cc1[C@@H](NC(C)=O)CC2` [COLCHICINE], the IC50 turned out to be 8.91 nM with HUVEC [1]; 37.4 nM in the series with HeLa; 46.7 nM with HepG2; 7.6 nM in the series on HUVEC [3]; 15.4 nM in the series on HT-1080. In the series on HUVEC [8], the Activity was 56%. The inhibition entry with HUVEC [11] was “Active”.

On to `COc1ccc(Cc2cn(C)c3c(OC)c(OC)c(OC)cc23)cc1F`, for which the half-inhibitory concentration (IC50) in the series on A549 [4] amounted to 144 nM.

Compound `COc1ccc(C(=O)c2cn(C)c3c(OC)c(OC)c(OC)cc23)cc1O` yielded an inhibition against Tubulin (Homo sapiens) of 27%. The IC50 in the series with HUVEC [1] stood at 25.3 nM; with HeLa, 125 nM; with HepG2 it was 44.5 nM; in the series on HUVEC [3] (read-out: IC50) it was 5240 nM; with HT-1080, 26.3 nM; in the series on A549 [4] it was 28.3 nM. The Activity in the series with HUVEC [5] worked out at 49%; in the series with A549 [13], 68%; in the series with A549 [7] it was 5.07%; in the series on HUVEC [8], 13%; with A549 [9], 78.85%; in the series with A549 [10], 14.34%. Further, in the series on A549 [14], the result was Active. In addition, the “Ratio IC50” value in the series on HUVEC [2] was 207. For the same compound, the inhibition result in the series with HUVEC [11] is “Active”.

Consider `COc1cc(C(=O)c2c[nH]c3c(OC)c(OC)c(OC)cc23)cc(OC)c1OC`, for which, in the series with A549 [4], the IC50 was over 10000 nM.

Compound `COc1ccc(C(=O)c2c[nH]c3c(OC)c(OC)c(OC)cc23)cc1F` displayed an IC50 in the series on A549 [4] of over 10000 nM.

`COc1ccc(C(=O)c2c[nH]c3c(OC)c(OC)c(OC)cc23)cc1I` yielded an IC50 with A549 [4] of over 10000 nM.

In the case of `COc1ccc(Cc2c[nH]c3c(OC)c(OC)c(OC)cc23)cc1F`, half-maximal inhibition with A549 [4] (IC50) required 387 nM.

Consider `COc1ccc(C(=O)n2ccc3cc(OC)c(OC)c(OC)c32)cc1`, for which the IC50 in the series with A549 [4] was over 10000 nM.

For `COc1ccc(C(=O)c2cn(C)c3c(OC)c(OC)c(OC)cc23)cc1F`, the IC50 with HUVEC [1] is 96.4 nM; in the series on HUVEC [3] (read-out: IC50) it was 151 nM; in the series on A549 [4], 146 nM. Further, the “Ratio IC50” value in the series on HUVEC [2] was 1.56.

`COc1ccc(C(=O)c2c[nH]c3c(OC)c(OC)c(OC)cc23)cc1` yielded an IC50 in the series with A549 [4] of 8290 nM.

The values are drawn from ChEMBL document CHEMBL2331442, “Synthesis and structure-activity relationships of N-methyl-5,6,7-trimethoxylindoles as novel antimitotic and vascular disrupting agents” (J Med Chem, 2013).
